Converted amounts (≈) assume the structure as drawn.
These compounds were tested on HeLa (assay: Cytotoxicity against human HeLa cells).
Assay type: functional, cell-based

Compound | IC50 [µg/mL]
C/C1=C/C(=O)[C@]2(C)CC(=O)[C@H](C(C)C)[C@H]2CC/C(C)=C\CC1 [EDUDIONE] | > 100
CC(C)=C1CC[C@@]2(C)C(=O)C[C@H](C)CC/C=C(\C)CC[C@H]12 [EDUNONE] | 25 (≈ 86.7 µM)
C=C(C)[C@@]1(O)CC[C@@]2(C)C/C=C(\C)CC/C=C(\C)CC[C@@H]21 [EDUNOL] | 25 (≈ 86.7 µM)
CC(C)=C1CC[C@@]2(C)C(=O)/C=C(/C)CC/C=C(/C)CC[C@H]12 [EDUENONE] | 50 (≈ 175 µM)

Reference: ChEMBL document CHEMBL1159220, “Additional dolabellane diterpenes from the Caribbean gorgonian octocoral Eunicea laciniata” (J Nat Prod, 1995)
